Some targets named below: Carbonic anhydrase 2 (Homo sapiens, UniProt P00918); Carbonic anhydrase 1 (Homo sapiens, UniProt P00915); Carbonic anhydrase 12 (Homo sapiens, UniProt O43570); Carbonic anhydrase 9 (Homo sapiens, UniProt Q16790).

Chain of Carbonic anhydrase 12 (O43570 whole entry): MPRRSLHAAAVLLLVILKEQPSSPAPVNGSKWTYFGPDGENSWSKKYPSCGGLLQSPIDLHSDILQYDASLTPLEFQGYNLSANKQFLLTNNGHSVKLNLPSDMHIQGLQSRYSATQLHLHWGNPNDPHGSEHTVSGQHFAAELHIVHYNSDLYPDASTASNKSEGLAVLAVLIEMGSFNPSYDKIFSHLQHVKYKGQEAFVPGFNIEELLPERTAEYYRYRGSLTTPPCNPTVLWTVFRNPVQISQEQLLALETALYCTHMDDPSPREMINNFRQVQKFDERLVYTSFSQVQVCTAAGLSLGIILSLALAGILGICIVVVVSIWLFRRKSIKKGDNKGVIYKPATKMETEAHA
Chain of Carbonic anhydrase 1 (P00915 whole entry): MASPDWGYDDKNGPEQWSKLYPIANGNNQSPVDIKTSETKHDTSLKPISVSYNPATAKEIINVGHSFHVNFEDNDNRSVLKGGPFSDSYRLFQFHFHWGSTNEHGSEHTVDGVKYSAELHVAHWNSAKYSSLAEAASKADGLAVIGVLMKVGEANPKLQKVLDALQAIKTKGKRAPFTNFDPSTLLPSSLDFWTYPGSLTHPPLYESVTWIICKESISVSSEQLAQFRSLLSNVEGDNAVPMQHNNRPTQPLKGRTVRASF
Description for Carbonic anhydrase 12: Inhibition of human carbonic anhydrase XII assessed as inhibition constant by stopped-flow carbon dioxide hydrase assay
Description for Carbonic anhydrase 2: Inhibition of human carbonic anhydrase II assessed as inhibition constant by stopped-flow carbon dioxide hydrase assay
Description for Carbonic anhydrase 9: Inhibition of human carbonic anhydrase IX assessed as inhibition constant by stopped-flow carbon dioxide hydrase assay

In the case of `NS(=O)(=O)c1ccc(/N=C/c2ccc(Cl)cc2)cc1`, at Carbonic anhydrase 2, the affinity corresponds to a Ki of 22.6 nM.
Turning to `NS(=O)(=O)c1ccc(/N=C/c2ccc([N+](=O)[O-])cc2)cc1`, on Carbonic anhydrase 2, the inhibitory constant (Ki) was 25.7 nM.
With `NS(=O)(=O)c1ccc(N2C(=O)CCSC2c2ccc(F)cc2)cc1` (racemic), the Ki was 13.6 nM at Carbonic anhydrase 1, 9.4 nM at Carbonic anhydrase 12, 7.8 nM at Carbonic anhydrase 2 and 74.6 nM on Carbonic anhydrase 9.
The matching figures for `N#Cc1ccc(C2SCCC(=O)N2c2ccc(S(N)(=O)=O)cc2)cc1` (racemic): 8.6 nM, 89.9 nM, 8.2 nM and 3.7 nM.
The matching figures for `N#Cc1cccc(C2SCCC(=O)N2c2ccc(S(N)(=O)=O)cc2)c1` (racemic): 7.2 nM, 61.1 nM, 14.6 nM and 18.9 nM.
The matching figures for `NS(=O)(=O)c1ccc(N2C(=O)CCSC2c2ccc([N+](=O)[O-])cc2)cc1` (racemic): 82.9 nM, 7.1 nM, 80.1 nM and 54.8 nM.
Take `NS(=O)(=O)c1ccc(N2C(=O)CCSC2c2ccc(Cl)cc2)cc1` (racemic): the Ki on Carbonic anhydrase 1 is 62.4 nM; on Carbonic anhydrase 12, 8.2 nM; on Carbonic anhydrase 2 it was 9 nM; at Carbonic anhydrase 9 it was 19.9 nM.

In general, Ki refers to a dissociation constant, usually derived from enzyme kinetics or from competition with a known ligand. Read a high Ki as lower affinity.

The record behind these values is ChEMBL document CHEMBL6083214, “Synthesis, biochemical screening and in-silico investigations of arylsulfonamides bearing linear and cyclic tails” (Bioorg Med Chem Lett, 2024).
